The text below walks through data of ChEMBL document CHEMBL3734735, “The effect of N-methylation on transition state mimetic inhibitors of the Plasmodium protease, plasmepsin V” (Medchemcomm, 2015).

Active and inactive are the calls of the source. The rule behind the calls is not given here. Square brackets hold non-standard residues; d marks the D form. Peptide text beside a SMILES is read from it. * marks the point of attachment. Sta = CC(C)C[C@H](N)[C@@H](O)CC(=O)O; NHPhenethyl = c1ccc(CCN*)cc1; NMeV = CN[C@H](C(=O)O)C(C)C; Cbz = O=C(OCc1ccccc1)* Where only a bound is given, the exact number is not on record here.

By IC50 is commonly meant the concentration needed to halve the response being measured. As usually defined, the EC50 is the concentration that produces a half-maximal response.

For one data set, the target named is Plasmepsin V (Plasmodium falciparum (isolate 3D7), UniProt Q8I6Z5). In words: Inhibition of HA-tagged transgenic Plasmodium falciparum plasmepsin 5 using DABCYL-RNKRTLAQKQ-E-EDANS as substrate after 120 mins by fluorescence plate reader analysis.
Plasmepsin V, sequence (Q8I6Z5 whole entry): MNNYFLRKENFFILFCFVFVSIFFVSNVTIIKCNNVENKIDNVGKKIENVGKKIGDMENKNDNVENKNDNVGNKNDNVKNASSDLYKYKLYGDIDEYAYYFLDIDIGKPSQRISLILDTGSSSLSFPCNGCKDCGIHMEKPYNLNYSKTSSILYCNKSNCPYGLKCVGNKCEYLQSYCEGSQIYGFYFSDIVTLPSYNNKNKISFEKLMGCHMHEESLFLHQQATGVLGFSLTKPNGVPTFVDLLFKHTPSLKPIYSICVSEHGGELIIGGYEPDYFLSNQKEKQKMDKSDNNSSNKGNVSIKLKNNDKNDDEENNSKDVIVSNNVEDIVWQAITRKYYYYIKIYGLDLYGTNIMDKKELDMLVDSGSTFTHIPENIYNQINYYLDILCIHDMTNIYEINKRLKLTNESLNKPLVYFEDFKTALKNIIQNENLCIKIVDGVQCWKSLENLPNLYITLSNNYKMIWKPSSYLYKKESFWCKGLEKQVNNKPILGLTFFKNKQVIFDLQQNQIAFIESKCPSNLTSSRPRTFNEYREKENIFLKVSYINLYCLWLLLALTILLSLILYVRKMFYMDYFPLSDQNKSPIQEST
The next data set deals with Plasmodium falciparum. In words: Antiparasitic activity against early ring-stage of Plasmodium falciparum 3D7 infected in human erythrocytes assessed as inhibition of parasite viability after 72 hrs by flow cytometric analysis. It counts as functional, organism-based. To be noted: 3D7, 72 h.
Another data set has as its system HepG2. Put plainly: Cytotoxicity against human HepG2 cells after 48 hrs by CellTiter Glo assay. It counts as cell-based. To be noted: HepG2, 48 h. In general terms: In ATP-based viability assays light output follows the ATP content of the culture.
A short description of data set [1]: Stability in phosphate buffer at 5000 ng/ml at 37 degC at pH 7.4 measured over 24 hrs by LC-MS analysis in presence of porcine pancreatin. It counts as physicochemical. To be noted: pig, pH 7.4, 24 h.
In the next data set the test system is Serum. In words: Metabolic stability in human serum at 5000 ng/ml at 37 degC measured over 55 hrs by LC-MS analysis. In kind it is ADME.
In data set [2] the target is Plasmepsin V (Plasmodium falciparum (isolate 3D7)) (UniProt Q8I6Z5). Put plainly: Inhibition of plasmepsin 5 in trophozoite stage of transgenic Plasmodium falciparum infected in erythrocytes assessed as suppression of PEXEL processing of GFP-fused EMP3 at 20 uM after 5 hrs by Western blot analysis. It counts as cell-based. In general terms: Immunoblotting shows a protein as a band on a membrane.
Plasmepsin V (Plasmodium falciparum (isolate 3D7)), sequence (Q8I6Z5 whole entry, looked up, the tested form may be a part): as the sequence (Q8I6Z5 whole entry) above

`CC(C)C[C@H](NC(=O)[C@H](C)NC(=O)[C@H](CCCNC(=N)N)NC(=O)OCc1ccccc1)[C@@H](O)CC(=O)NCCc1ccc(Cl)cc1` returned an IC50 on Plasmepsin V of 0.3 µM. Moreover, the EC50 in the data set with Plasmodium falciparum was 15.3 µM; in the data set with HepG2, > 50 µM. In addition, the Stability entry (in data set [1]; in the data set with Serum) was “Stable” in each case. The inhibition result in data set [2] was “Active”.
At Plasmepsin V, `CC(C)C[C@@H]([C@@H](O)CC(=O)NCCc1ccc(Cl)cc1)N(C)C(=O)[C@H](C)NC(=O)[C@H](CCCNC(=N)N)NC(=O)OCc1ccccc1` had a half-maximal inhibitory concentration (IC50) of 0.89 µM. The EC50 in the data set on Plasmodium falciparum was 29.2 µM; in the data set with HepG2, > 50 µM. In addition, the Stability result is listed as “Unstable” in data set [1] and “Stable” with Serum. In data set [2], the inhibition entry was “inactive”.
In the case of `CC(C)C[C@H](NC(=O)[C@H](C)NC(=O)[C@H](CCCNC(=N)N)NC(=O)OCc1ccccc1)[C@@H](O)CC(=O)N(C)CCc1ccc(Cl)cc1`, the midpoint of inhibition at Plasmepsin V, the IC50, lay at 5.35 µM. Moreover, the EC50 in the data set with Plasmodium falciparum was 20.3 µM; in the data set on HepG2 it was > 50 µM. Moreover, the Stability entry (in data set [1]; in the data set with Serum) was “Stable” in each case. Besides, in data set [2], the inhibition entry is “inactive”.
With `CC(C)C[C@H](NC(=O)[C@@H](NC(=O)[C@H](CCCNC(=N)N)NC(=O)OCc1ccccc1)C(C)C)[C@@H](O)CC(=O)NCCc1ccccc1` (Cbz-Arg-Val-[Sta]-NHPhenethyl), at Plasmepsin V, 0.026 µM corresponded to half-maximal inhibition (IC50). Besides, the EC50 with Plasmodium falciparum was 3.97 µM; in the data set with HepG2, > 50 µM. Further, the inhibition result in data set [2] is “Active”.
`CCN(CC)CCCC(C)Nc1ccnc2cc(Cl)ccc12` (centres undefined) [CHLOROQUINE]: in the data set on Plasmodium falciparum, the EC50 was determined as 0.01 µM.
Take `CC(C)C[C@H](NC(=O)[C@H](C)NC(=O)[C@H](CCCNC(=N)N)N(C)C(=O)OCc1ccccc1)[C@@H](O)CC(=O)NCCc1ccc(Cl)cc1`: the IC50 at Plasmepsin V amounted to 15.6 µM. Further, the EC50 was 67.8 µM in the data set on Plasmodium falciparum and > 50 µM in the data set on HepG2. In addition, the Stability entry (in data set [1]; in the data set with Serum) was “Stable” throughout. In addition, the inhibition entry in data set [2] is “inactive”.
As to `COc1cc([C@@H]2c3cc4c(cc3[C@@H](O[C@@H]3O[C@@H]5CO[C@@H](C)O[C@H]5[C@H](O)[C@H]3O)[C@H]3COC(=O)[C@H]23)OCO4)cc(OC)c1O` [ETOPOSIDE], the EC50 in the data set with HepG2 worked out at 9.8 µM.
Molecule `CC(C)C[C@H](NC(=O)[C@H](C)N(C)C(=O)[C@H](CCCNC(=N)N)NC(=O)OCc1ccccc1)[C@@H](O)CC(=O)NCCc1ccc(Cl)cc1` gave an IC50 at Plasmepsin V of 48 µM. Further, the figures for the EC50 in the data set with Plasmodium falciparum and in the data set on HepG2 were 23.2 µM and > 50 µM, respectively. For the same molecule, the Stability result (in data set [1]; in the data set on Serum) was “Stable” throughout. The inhibition result in data set [2] was “inactive”.
Turning to `CC(C)C[C@H](NC(=O)[C@H](C(C)C)N(C)C(=O)[C@H](CCCNC(=N)N)NC(=O)OCc1ccccc1)[C@@H](O)CC(=O)NCCc1ccccc1` (Cbz-Arg-[NMeV]-[Sta]-NHPhenethyl), on Plasmepsin V, the IC50 was > 50 µM. Also, the EC50 with Plasmodium falciparum amounted to 5.89 µM. In addition, in data set [2], the inhibition result is “inactive”.
